The record followed here is patent EP1258532A1, “Thermostable D-hydantoinase from Bacillus circulans and the application thereof” (NATIONAL SCIENCE COUNCIL, priority 2001, dated 2002).

Assay [1] deals with D-hydantoinase. In words: Effects of metal ions on D-hydantoinase activity. The class given is biochemical, Bacillus circulans. Particulars: ion 500 µM; for Specific activity: 15 min at room temperature, substrate 10 mM D,L-p-HPH in 50 mM Tris-HCl (pH 8.0); for Relative activity: activity percentage based on that without adding ions. Here is the method: Various divalent metal ions (as set forth in Table 1 below) were added to the vector pQE-bcidht in E. coli NovaBlue, crude extracts thereof or the purified D-hydantoinase of the present invention at 500 µM concentration. After 15 minutes of incubation at room temperature, 10 mM substrate of D,L-p-HPH (dissolved in 50 mM Tris-HCl (pH 8.0)) was added. The specific activity of the enzyme was then measured.

The subject of assay [2] is D-hydantoinase. In words: Effects of H2O2, NaCl and NH4Cl on D-hydantoinase activity. The class given is biochemical, Bacillus circulans. Particulars: in the presence of 0.8 M H2O2; 25°C for 10 min, residual H2O2 removed with catalase; 800000 µM. The protocol: The vector pQE-bcidht in E. coli NovaBlue, crude extracts thereof or the purified D-hydantoinase of the present invention was incubated at 25°C for 10 min. Afterwards, the catalase was added to the solution to remove residual H2O2, and then the enzyme activity was measured. In addition, various concentrations of NaCl and NH4Cl were added to the solution containing D-hydantoinase. The solution was incubated at room temperature for 10 min, and the enzyme activity was measured.

Take FeSO2: in the assay on D-hydantoinase [1], the Specific activity worked out at 2.52 unit/mg. Further, in the assay with D-hydantoinase [1] (15 min), the Relative activity amounted to 87.5%.

On to H2O2, for which the retained enzyme activity with D-hydantoinase [2] came to 85%.

MgSO4: in the assay with D-hydantoinase [1], the Specific activity is 2.69 unit/mg and the Relative activity amounted to 94%.

For NiSO4, in the assay with D-hydantoinase [1], the Specific activity is given as 4.00 unit/mg and the Relative activity came to 139%.

ZnSO4: in the assay with D-hydantoinase [1], the Specific activity worked out at 1.44 unit/mg and the Relative activity is given as 50%. In the assay on D-hydantoinase [1] (substrate 10 mM D,L-p-HPH), the “inhibition of D-hydantoinase activity” value is listed as 50%.
